Experimental findings from patent US7803783B2, “Use of WNT inhibitors to augment therapeutic index of chemotherapy” (The Board of Trustees of the Leland Stanford Junior …, priority 2002, dated 2010) are described below.

Assay [1] concerns wild type mouse bone marrow HSCs. As to the kind of experiment: In vitro HSC proliferation assay with purified Wnt3A. Format: cell-based. On the procedure: FIGS. 5A-5D. Wild Type HSCs proliferate to purified Wnt3A. Purified wild type mouse bone marrow HSCs were sorted by FACS and plated at 5 or 10 cells/well into 60 well Terasaki plates. Cells were incubated in X-vivo 15 (Bio Whittaker), 10% FBS, 5×10^−5M 2-Mercaptoethanol, and 1×10^−4M random methylated beta-cyclodextrin (CTD, Inc.) in the presence of either purified Wnt3A (at approx. 100 ng/ml) plus SLF (10 ng/ml) or SLF (10 ng/ml) alone, as a control. (SLF dose required ranged from 7.5 ng/ml-100 ng/ml depending on mouse strain used). Cell growth was monitored over a period of 7-9 days in culture, and is shown as total cell response (A) and the average frequency of responding wells (B) representative of over 9 independent experiments. To determine phenotypic characteristics, cells were plated in bulk (3500 cells) in 96 well plates and incubated in the presence of purified or unpurified Wnt3A.
Purified Wnt protein can regulate HSC self-renewal in the same manner as β-catenin in BCL-2 transgenic HSCs. To ensure that this response was not dependent on BCL-2 over-expression, we specifically tested whether wild type HSCs respond in a similar manner to purified Wnt3A as well. Over a period of days, HSCs plated at 1-20 cells per well, responded extremely robustly to Wnt3A in contrast to control conditions (e.g. 184 cells versus 0 when plated at 5 cells/well) (FIG. 5). The average frequency of cells that responded to Wnt3A over 3 independent experiments was 17-fold more than the proliferation to control conditions (limiting dose of SLF) when plated at 10 cells/well. […] Furthermore, the phenotypic characteristics of HSCs treated with purified or unpurified Wnt3A were dramatically different. […] Furthermore, a significant fraction of the lineage negative population expressed c-Kit and Sca-1 consistent with a HSC phenotype (D).
In vitro HSC proliferation assays. Freshly purified or virally transduced HSCs were plated at 1 to 20 cells per well in Terasaki plates. Cells were sorted into wells containing serum-free medium (X-vivo15, BioWhittaker) supplemented with 5×10^−5 M 2-mercaptoethanol and the indicated growth factors. Proliferation was monitored by counting the number of cells in each well at defined intervals. For longer-term cultures, transduced HSCs were plated in 96-well plates in the absence or presence of SLF (1 ng ml^−1), and the number of cells generated was monitored by cell counting at defined intervals. For inhibition of growth by CRD or axin, cells were cultured in the presence of mitogenic factors (SLF (30 ng ml^−1), Flt-3L (30 ng ml^−1), interleukin-6 (10 ng ml^−1)).

A further assay deals with HSCs. As to the kind of experiment: Transplantation of Wnt3A-treated HSCs into lethally irradiated recipient mice. Format: in vivo, mouse. The protocol: To test whether the cells treated with purified Wnt3A underwent self-renewal functionally, purified HSCs were plated as 1 cell or as 10 cells, treated with Wnt3A and each well containing proliferating cells transplanted individually into lethally irradiated recipient mice along with 300,000 Sca-1^− Bone Marrow cells (A). […] Since the empirically observed frequency of reconstitution of resting HSCs is ˜10% and of cycling HSCs ˜2%, the observed frequency of reconstitution of 100% for 1 plated cells is consistent with Wnt3A inducing a 10- to 50-fold increase in HSC activity, a range similar to that seen with BCL-2 transgenic HSCs.
In vivo analysis of HSC function.

For assay [2], the system named is LEF-1/TCF reporter (TOP-dGFP). As to the kind of experiment: Lentiviral LEF-1/TCF reporter assay in HSCs in vitro. It is filed as cell-based, mouse. Particulars: HSCs stimulated with Wnt3a about 100 ng/ml.
The subject of a further assay is human bone marrow HSCs. Kind of assay: Proliferation of human bone marrow HSCs with soluble Wnt3a. Particulars: absence of any other growth factor. Format: cell-based.

In the case of Wnt3a, the “average frequency of cells that responded relative to control conditions” value in assay [1] (10 cells/well, 3 independent experiments, control limiting dose of SLF) is reported as 17 fold. The “lineage marker phenotype of treated HSCs” value in assay [1] (after 7 days in culture) is “negative for lineage markers”. The same substance gave a total cell response in assay [1] (plated at 5 cells/well, control 0) of 184 cells. Moreover, the “numbers of progeny generated by singly plated HSCs compared with control conditions” value in assay [1] (singly plated HSCs, presence of Wnt3a) is on record as “six-fold”. In the assay with HSCs (1 plated cell treated with Wnt3A), this substance had a frequency of reconstitution of 100%. This substance also yielded a reconstitution efficiency in the assay on HSCs (wells plated with 10 cells or 5 cells) of 100%. Further, the “TOP-dGFP reporter activity (GFP expression)” value in assay [2] was “significant reporter activity”. In addition, the “proliferation of highly purified human bone marrow HSCs” value with human bone marrow HSCs is listed as “induces proliferation”.
